Measured values as given in article PMC11120720, “Linking Variability in Phytochemical Composition with Safety Profile of Thymus carnosus Boiss. Extracts: Effect of Major Compounds and Evaluation of Markers of Oxidative Stress and Cell Death” (International Journal of Molecular Sciences, 2024).
Like-named read-outs stand apart in the source and are kept apart here.

Legend:
HepG2 cells [1] = experiment: Alamar Blue cell viability assay, HepG2; type: cell-based, human; details: for IC50: Homo sapiens
Protocol: (§1) The safety profile of T. carnosus AD and HE extracts was evaluated in Caco-2 and HepG2 cells using an Alamar Blue® (Invitrogen; Alfagene, Lisboa, Portugal) assay. An initial screening was performed for all extracts at concentrations ranging between 100 and 1000 µg/mL. Due to the higher toxicity of the HE extracts, which was previously described for various extracts of Thymus species using the same extraction methods (e.g., T. mastichina and Thymus zygis), a different set of concentrations was used for the HE extracts (between 100 and 300 µg/mL for Caco-2 cells and 50 and 150 µg/mL for HepG2 cells). Figure 1 presents the data related to the cell viability assays in Caco-2 (panels A–E) and HepG2 cells (panels F–J) exposed to T. carnosus extracts, as indicated.
(§2) The safety profile of T. carnosus extracts was assessed in Caco-2 and HepG2 cells. Caco-2 (human colon adenocarcinoma cell line) were obtained from CLS (Cell Lines Service, Eppelheim, Germany), and HepG2 (human hepatocellular carcinoma cell line) were obtained from ATCC (American Type Culture Collection, Manassas, VA, USA).
(§3) Cell culture maintenance, handling, subculturing, and seeding were performed as described by Silva et al., 2020 [5], and cell viability was assessed using an Alamar Blue® assay, as described by Andreani et al., 2014 [64]. Concentrations ranged between 100 and 1000 µg/mL for AD extracts in both cell lines and 100 to 300 µg/mL or 50 to 150 µg/mL for HE extracts in Caco-2 and HepG2 cells, respectively. The effect of individual compounds on cell viability was assessed for concentrations ranging from 50 to 300 µM. All test solutions were prepared by diluting the samples in FBS-free culture media from the stock solutions described in Section 3.2, just prior to being used.
(§4) The results are presented as mean ± SD of at least three independent assays. The calculation of IC50 values was performed as described by Silva et al., 2020 [5]. Data analysis, graphical design, and statistical analysis were performed using Microsoft Office Excel (Professional Plus 2019; Microsoft Corporation, Washington, DC, USA) and GraphPad Prism (Version 8; GraphPad Software Inc., San Diego, CA, USA). Flow cytometry data analysis was performed using BD Accuri™ C6 Software, version 1.0.264.21 (Becton Dickinson, San Diego, CA, USA).

[2] = Alamar Blue cell viability assay, HepG2; type: cell-based, human; details: human, HepG2 cells, concentration not given
Protocol: as §1, §2, §3, §4

[3] = tested on: human lung cancer (A549) cells; details: cited from earlier work
HepG2 cells [4] = experiment: Intracellular ROS (DCFDA, flow cytometry), HepG2; type: cell-based, human; details: compound 50 µM, 24 h
Protocol: (§5) The cells were then equally divided for each assay.
(§6) Intracellular ROS level assessment was performed as described by Silva et al., 2022 [65], using dichlorodihydrofluorescein diacetate (DCFDA). Cells obtained in the previous step were centrifuged, the supernatant discarded, and 200 µL of DCFDA (10 µM in FBS-free DMEM) was added. Cells were incubated for 45 min (37 °C, in the dark), washed to remove excess probe, and resuspended in PBS for data acquisition.

HepG2 cells [5] = experiment: Mitochondrial membrane potential (JC-1, flow cytometry), HepG2; type: cell-based, human
Protocol: (§7) Flow cytometry was used to analyze the effect of T. carnosus extracts on intracellular ROS, modulation of mitochondrial membrane potential (MMP), cell cycle arrest, and apoptotic/necrotic cell death induction.
(§8) Both one- and two-color assays were performed using a BD Accuri™ C6 cytometer (Becton Dickinson, Franklin Lakes, NJ, USA), and 10,000 gated events were collected from each sample [1]. For flow cytometry assays, cells were handled as described previously but seeded at a density 5 × 10^4 cells/mL (750 μL/well) in 12-well plates. Caco-2 and HepG2 cells were incubated for 24 h with the extracts (100 µg/mL) or individual phytochemicals (50 µM) diluted in FBS-free culture media h. After incubation, test solutions were removed; the cells were washed with PBS and detached from the plates using trypsin-EDTA. Once transferred to centrifuge tubes, the cells were centrifuged (bench micro-centrifuge; 3000 rpm; 3 min), the supernatant was discarded, and a new wash cycle was performed. The cells were then equally divided for each assay. A negative control was used in all assays consisting of nonexposed cells incubated only with culture media.
(§9) Mitochondrial membrane potential (MMP) was evaluated using 5,5″,6,6″-tetrachloro-1,1″,3,3″-tetraethylbenzimidazolylcarbocyanineiodide (JC-1). Cells were processed as described for DCFDA but incubated with 200 µL of JC-1 (2 µM, in FBS-free DMEM) for 20 min (37 °C, in the dark).

[6] = tested on: normal and tumoral human nasopharyngeal cells; design: method as in PMID 33277860; details: 24 h; cited from earlier work
Caco-2 cells [7] = experiment: Alamar Blue cell viability assay, Caco-2; type: cell-based, human; details: for IC50: Homo sapiens
Protocol: as §1, §2, §3, §4

[8] = Alamar Blue cell viability assay, Caco-2; type: cell-based, human; details: human, Caco-2; 48 h; concentration not given; read-out: cell viability, Caco-2 (% of control)
Protocol: as §1, §2, §3, §4

Caco-2 cells [9] = experiment: Annexin V-FITC/PI apoptosis/necrosis, Caco-2; type: cell-based; details: compound 50 µM, 24 h
Protocol: as §5
(§10) For the assessment of apoptotic/necrotic cell death, an Annexin V-FITC (Thermo Fisher Scientific, Waltham, MA, USA) and propidium iodide (PI; Merck, Darmstadt, Germany) double-staining assay was used to evaluate the apoptotic/necrotic cell death induced by T. carnosus extracts and by individual phytochemicals, as described previously. Briefly, after detachment and washing, the supernatant was discarded, and 200 µL of Annexin V-FITC (1:200 dilution in Annexin-binding buffer [10 mM HEPES sodium salt, 150 mM NaCl, 5 mM KCl, 5 mM MgCl2, and 1.8 mM CaCl2; pH = 7.4]) was added. Cells were incubated for 20 min (room temperature, in the dark). After incubation, 5 µL of propidium iodide (PI; 50 µg/mL) was added, the cells were incubated for 5 min on ice (in the dark), and the data were acquired.

Caco-2 cells [10] = experiment: Intracellular ROS (DCFDA, flow cytometry), Caco-2; type: cell-based; details: compound 50 µM, 24 h
Protocol: as §5, §6

HepG2 cells [11] = experiment: Annexin V-FITC/PI apoptosis/necrosis, HepG2; type: cell-based, human; details: compound 50 µM, 24 h
Protocol: as §5, §10

Caco-2 cells [12] = details: positive control, 5 µM
Protocol: as §7, §8, §9

HepG2 cells [13] = experiment: Cell cycle arrest (PI, flow cytometry), HepG2; type: cell-based, human; details: compound 50 µM, 24 h
Protocol: as §5
(§11) Cell cycle arrest assessment was performed as described in [1]. Cells were processed as described above until cell detachment and centrifuged, after which the second washing step was performed with ice-cold PBS (0 °C). After centrifugation, the supernatant was discarded, and cells were fixed with 500 µL of ethanol:PBS solution (70:30, % v/v, previously cooled at −20 °C) for at least 4 h at −20 °C. After fixation, two washing cycles were performed: the first with ice-cold PBS (0 °C) and the second with room-temperature PBS, followed by the addition of 200 µL of a PBS solution containing PI (50 µg/mL), RNAse A (50 µg/mL), and Triton X-100 (0.1%). Cells were incubated for 30 min at 37 °C, and then cells were washed once with PBS to remove the staining solution. After resuspension in PBS, the data were acquired.

Caco-2 cells [14] = experiment: Cell cycle arrest (PI, flow cytometry), Caco-2; type: cell-based; details: compound 50 µM, 24 h
Protocol: as §5, §11

Caco-2 cells [15] = details: cited from earlier work
[16] = tested on: nasopharyngeal carcinoma cells NPC-039; design: method as in PMID 34165247; details: cited from earlier work
HepG2 cells [17] = details: cited from earlier work
[18] = tested on: nasopharyngeal carcinoma cells NPC-BM; design: method as in PMID 34165247; details: cited from earlier work
[19] = design: method as in PMID 31344882, PMID 26042707; details: cited from earlier work
[20] = tested on: hepatocarcinoma cells (HuH7); design: method as in PMID 20415421; details: 20-80 µM; cited from earlier work

O=C1C[C@@H](c2ccc(O)c(O)c2)Oc2cc(O)cc(O)c21 [Eriodictyol, eriodictyol]
IC50 (HepG2 cells [1]; HepG2, 24 h, read-out: IC50 (µM) - HepG2 cells: 24 h): > 300 µM
IC50 (HepG2 cells [1]; HepG2, 48 h, read-out: IC50 (µM) - HepG2 cells: 48 h): 231 ± 23.2 µM
viability at 24 h ([2]; 24 h): 56.9%
viability at 48 h ([2]; 48 h): 43.2%
cell cycle effect, A549 [3]: cell cycle arrest in the G2/M phase
concentrations reducing the MMP in A549 cells [3]: ≥ 25 µM
change in intracellular ROS, HepG2 (HepG2 cells [4]): significant (p < 0.05) increase in intracellular HepG2 ROS levels
MMP modulation, HepG2 (HepG2 cells [5]; compound 50 µM, 24 h): hyperpolarization of the mitochondrial membrane
concentrations inducing cytotoxicity, nasopharyngeal cells [6]: ≥ 5 µM
reduction of Caco-2 cell viability (Caco-2 cells [7]; 48 h, concentration not given): ~ 81%
IC50 (Caco-2 cells [7]; Caco-2, 24 h, read-out: IC50 (µM) - Caco-2 cells: 24 h): 245 ± 13.7 µM
IC50 (Caco-2 cells [7]; Caco-2, 48 h, read-out: IC50 (µM) - Caco-2 cells: 48 h): 82.5 µM
viability at 48 h [8]: ~19%
cell death induction, Caco-2 (Caco-2 cells [9]): induced apoptosis and necrosis
change in intracellular ROS, Caco-2 (Caco-2 cells [10]): neither RA nor eriodictyol induced ROS increases
cell death induction, HepG2 (HepG2 cells [11]): induced apoptosis and necrosis

N#CC(C#N)=NNc1ccc(OC(F)(F)F)cc1 [FCCP, carbonyl cyanide p-trifluoromethoxyphenylhydrazone]
JC-1 FL2/FL1 ratio normalized by negative control, Caco-2 (Caco-2 cells [12]): 0.06 ± 0.01
reduction in MMP, Caco-2 (Caco-2 cells [12]): ~ 94%
JC-1 FL2/FL1 ratio normalized by negative control, HepG2 (HepG2 cells [5]; positive control, 5 µM): 0.10 ± 0.01
reduction in MMP, HepG2 (HepG2 cells [5]; positive control, 5 µM): ~ 90%

O=c1cc(-c2ccc(O)c(O)c2)oc2cc(O[C@@H]3O[C@H](CO)[C@@H](O)[C@H](O)[C@H]3O)cc(O)c12 [Luteolin-7-O-glucoside, luteolin-7-O-glucoside]
reduction in HepG2 cell viability (HepG2 cells [1]; 300 µM, 48 h): ~ 30%
concentrations giving significant effect on HepG2 cell viability (HepG2 cells [1]; 48 h exposure): ≥ 100 µM
cell cycle effect, HepG2 (HepG2 cells [13]): induced cell cycle arrest in both cell lines but in different phases
change in intracellular ROS, HepG2 (HepG2 cells [4]): significant (p < 0.05) increase in intracellular HepG2 ROS levels
cell cycle effect, Caco-2 (Caco-2 cells [14]): cell cycle arrest in G0/G1
concentrations reducing Caco-2 cell viability (p < 0.05) (Caco-2 cells [7]; Caco-2): ≥ 75 µM
IC50 (Caco-2 cells [15]; read-out: concentration reducing Caco-2 cell viability to 50% of control, 48 h): ~55 µM
MMP modulation, NPC-039 ([16]; 20, 40 and 80 µM): MMP depolarization
cell cycle effect, NPC-039 [16]: cell cycle arrest in the S and G2/M phases
cell death induction, Caco-2 (Caco-2 cells [9]): did not induce cell death
IC50 (HepG2 cells [17]; read-out: concentration reducing HepG2 cells' viability to ~50%): 44.6 µM
cell death induction, HepG2 (HepG2 cells [11]): did not induce cell death
MMP modulation, NPC-BM ([18]; 20, 40 and 80 µM): MMP depolarization
cell cycle effect, NPC-BM [18]: cell cycle arrest in the S and G2/M phases

CC1(C)CC[C@]2(C(=O)O)CC[C@]3(C)C(=CC[C@@H]4[C@@]5(C)CC[C@H](O)C(C)(C)[C@@H]5CC[C@]43C)[C@@H]2C1 [Oleanolic acid, oleanolic acid]
IC50 (HepG2 cells [1]; HepG2, 24 h exposure, read-out: IC50 (µM) - HepG2 cells: 24 h): 150 ± 7.66 µM
change in intracellular ROS, HepG2 (HepG2 cells [4]): significant (p < 0.05) increase in intracellular HepG2 ROS levels
cell cycle effect, Caco-2 (Caco-2 cells [14]): cell cycle arrest in G0/G1
IC50 (Caco-2 cells [7]; Caco-2, 24 h exposure, read-out: IC50 (µM) - Caco-2 cells: 24 h): 78.5 ± 3.57 µM
IC50 (Caco-2 cells [7]; Caco-2, 48 h exposure, read-out: IC50 (µM) - Caco-2 cells: 48 h): 45.9 ± 2.47 µM
lipophilicity [19]: high lipophilicity
water solubility [19]: poor water solubility
concentrations reducing Caco-2 cell viability (Caco-2 cells [15]; 24 h): ≥ 5 µM
MMP modulation, HuH7 [20]: reduce MMP
percentage of cells in late apoptosis, Caco-2 (Caco-2 cells [9]): ~ 29%
percentage of cells in necrosis, Caco-2 (Caco-2 cells [9]): ~ 50%
concentrations reducing HepG2 cell viability (HepG2 cells [17]; 48 h): ≥ 2 µM
IC50 (HepG2 cells [17]; read-out: IC50, HepG2 cells, 72 h): > 100 µM
change in intracellular ROS, Caco-2 (Caco-2 cells [10]): increase in ROS
cell death induction, HepG2 (HepG2 cells [11]): slight reduction in the percentage of healthy cells

COc1cc(/C=C/C(=O)CC(=O)/C=C/c2ccc(O)c(OC)c2)ccc1O [curcumin]
MMP modulation, HepG2 (HepG2 cells [17]; 27-108 µM): mitochondrial membrane hyperpolarization in HepG2 cells, followed by depolarization

O=c1c(O[C@@H]2O[C@H](CO)[C@@H](O)[C@H](O)[C@H]2O)c(-c2ccc(O)c(O)c2)oc2cc(O)cc(O)c12 [quercetin-3-O-glucoside]
cytotoxicity in Caco-2 cells relative to quercetin aglycone (Caco-2 cells [15]): lower cytotoxicity in Caco-2 cells than aglycone

O=C(O)[C@H]1O[C@@H](Oc2c(-c3ccc(O)c(O)c3)oc3cc(O)cc(O)c3c2=O)[C@H](O)[C@@H](O)[C@@H]1O [quercetin-3-O-glucuronide]
cytotoxicity in Caco-2 cells relative to quercetin aglycone (Caco-2 cells [15]): lower cytotoxicity in Caco-2 cells than aglycone
